The text below walks through data of patent publication US9120781B2, “Selective glycosidase inhibitors and uses thereof” (Simon Fraser University, priority 2010, dated 2015).

In this assay the target is human O-GlcNAcase (Homo sapiens (Human), UniProt O60502). As to the kind of experiment: Assay for determination of KI values for inhibition of O-GlcNAcase activity (fluorescence-based hOGA). Type of assay: biochemical. Conditions: purified human O-GlcNAcase, 4-Methylumbelliferyl N-acetyl-β-D-glucosaminide substrate, pH 7.0, Cheng-Prusoff. How it is done:
Assay for Determination of KI Values for Inhibition of O-GlcNAcase Activity
Experimental Procedure for Kinetic Analyses:
Enzymatic reactions are carried out in a reaction containing 50 mM NaH2PO4, 100 mM NaCl and 0.1% BSA (pH 7.0) using 2 mM 4-Methylumbelliferyl N-acetyl-β-D-glucosaminide dihydrate (Sigma M2133) dissolved in ddH2O, as a substrate. The amount of purified human O-GlcNAcase enzyme used in the reaction is 0.7 nM. Test compound of varying concentrations is added to the enzyme prior to initiation of the reaction. The reaction is performed at room temperature in a 96-well plate and is initiated with the addition of substrate. The production of fluorescent product is measured every 60 sec for 45 min with a Tecan Infinite M200 plate-reader with excitation at 355 nm and emission detected at […], with 4-Methylumbelliferone (Sigma M1381) used to produce a standard curve. The slope of product production is determined for each concentration of compound tested and plotted, using standard curve fitting algorithms for sigmoidal dose response curves. The values for a four parameter logistic curve fit of the data are determined.

human O-GlcNAcase, sequence (O60502 whole entry): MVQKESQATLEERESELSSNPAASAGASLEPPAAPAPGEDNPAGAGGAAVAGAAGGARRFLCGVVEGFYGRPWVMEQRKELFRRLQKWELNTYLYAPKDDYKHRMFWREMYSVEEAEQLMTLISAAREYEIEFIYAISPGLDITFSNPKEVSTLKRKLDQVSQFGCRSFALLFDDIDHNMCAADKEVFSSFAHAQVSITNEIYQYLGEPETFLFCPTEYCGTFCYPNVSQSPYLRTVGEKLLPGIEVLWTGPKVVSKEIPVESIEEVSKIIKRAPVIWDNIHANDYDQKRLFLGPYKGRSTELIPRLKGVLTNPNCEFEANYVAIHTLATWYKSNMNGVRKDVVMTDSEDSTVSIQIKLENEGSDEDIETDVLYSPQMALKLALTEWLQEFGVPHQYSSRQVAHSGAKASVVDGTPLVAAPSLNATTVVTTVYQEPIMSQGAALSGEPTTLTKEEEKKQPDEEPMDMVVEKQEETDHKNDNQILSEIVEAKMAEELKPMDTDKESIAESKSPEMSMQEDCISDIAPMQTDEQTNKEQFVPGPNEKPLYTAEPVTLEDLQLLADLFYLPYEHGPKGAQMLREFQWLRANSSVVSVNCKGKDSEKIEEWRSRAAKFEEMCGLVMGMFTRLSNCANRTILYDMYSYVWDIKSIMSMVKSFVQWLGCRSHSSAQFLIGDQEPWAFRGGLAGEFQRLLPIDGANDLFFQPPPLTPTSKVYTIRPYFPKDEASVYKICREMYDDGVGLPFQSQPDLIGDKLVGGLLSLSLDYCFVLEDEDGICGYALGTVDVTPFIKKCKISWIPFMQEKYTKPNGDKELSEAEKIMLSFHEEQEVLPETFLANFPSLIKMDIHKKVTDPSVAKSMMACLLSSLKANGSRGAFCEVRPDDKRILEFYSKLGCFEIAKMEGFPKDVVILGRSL

`CCNC1=N[C@@H]2[C@@H](O)[C@H](O)[C@@H](CO)C[C@@H]2O1` [Example 9, (3aR,4R,5R,6R,7aS)-2-(ethylamino)-6-(hydroxymethyl)-3a,4,5,6,7,7a-hexahydrobenzo[d]oxazole-4,5-diol] showed a Ki of 0.6 nM. For `OC[C@H]1C[C@@H]2OC(N3CCC3)=N[C@@H]2[C@@H](O)[C@@H]1O` [Example 18, (3aR,4R,5R,6R,7aS)-2-(azetidin-1-yl)-6-(hydroxymethyl)-3a,4,5,6,7,7a-hexahydrobenzo[d]oxazole-4,5-diol], the Ki turned out to be 0.13 nM.

For the molecule `CN(C)C1=N[C@@H]2[C@@H](O)[C@H](O)[C@@H](CO)C[C@@H]2S1` [Example 22, (3aR,4R,5R,6R,7aS)-2-(dimethylamino)-6-(hydroxymethyl)-3a,4,5,6,7,7a-hexahydrobenzo[d]thiazole-4,5-diol], the affinity, expressed as Ki, was 0.5 nM. In the case of `CN(C)C1=N[C@H]2[C@H](O)[C@@H](O)[C@H](CO)C[C@H]2S1` [Example 23, (3aS,4S,5S,6S,7aR)-2-(dimethylamino)-6-(hydroxymethyl)-3a,4,5,6,7,7a-hexahydrobenzo[d]thiazole-4,5-diol] it was 484 nM. To `CNC1=N[C@@H]2[C@@H](O)[C@H](O)[C@@H](CO)C[C@@H]2S1` [Example 26, (3aR,4R,5R,6R,7aS)-2-(methylamino)-6-(hydroxymethyl)-3a,4,5,6,7,7a-hexahydrobenzo[d]thiazole-4,5-diol] belongs 0.2 nM; to `OC[C@H]1C[C@@H]2OC(NCCF)=N[C@@H]2[C@@H](O)[C@@H]1O` [Example 32, (3aR,4R,5R,6R,7aS)-2-((2-fluoroethyl)amino)-6-(hydroxymethyl)-3a,4,5,6,7,7a-hexahydrobenzo[d]oxazole-4,5-diol 2,2,2-trifluoroacetate], 2.5 nM.

The Ki is the dissociation constant of the complex between target and ligand, obtained from inhibition or displacement. Low values mean higher affinity, high ones lower affinity.
